Bridge positions count the residues as written; N and C are the ends. Square brackets hold non-standard residues; d marks the D form. Peptide text beside a SMILES is read from it.
Experiments:
ANP receptor = target: T1, ANP receptor (Sus scrofa, UniProt F1SFW3); assay: cGMP production in ANP receptor-expressing LLC-PK1 cells; assay type: cell-based; details: 30 min stimulation, 10^-6M through 10^-12M, NR = No response detected
T1 construct: ANP receptor-expressing LLC-PK1 cells; endogenous in cells; host or cells: LLC-PK1 cells
T1 sequence (F1SFW3 29-1057): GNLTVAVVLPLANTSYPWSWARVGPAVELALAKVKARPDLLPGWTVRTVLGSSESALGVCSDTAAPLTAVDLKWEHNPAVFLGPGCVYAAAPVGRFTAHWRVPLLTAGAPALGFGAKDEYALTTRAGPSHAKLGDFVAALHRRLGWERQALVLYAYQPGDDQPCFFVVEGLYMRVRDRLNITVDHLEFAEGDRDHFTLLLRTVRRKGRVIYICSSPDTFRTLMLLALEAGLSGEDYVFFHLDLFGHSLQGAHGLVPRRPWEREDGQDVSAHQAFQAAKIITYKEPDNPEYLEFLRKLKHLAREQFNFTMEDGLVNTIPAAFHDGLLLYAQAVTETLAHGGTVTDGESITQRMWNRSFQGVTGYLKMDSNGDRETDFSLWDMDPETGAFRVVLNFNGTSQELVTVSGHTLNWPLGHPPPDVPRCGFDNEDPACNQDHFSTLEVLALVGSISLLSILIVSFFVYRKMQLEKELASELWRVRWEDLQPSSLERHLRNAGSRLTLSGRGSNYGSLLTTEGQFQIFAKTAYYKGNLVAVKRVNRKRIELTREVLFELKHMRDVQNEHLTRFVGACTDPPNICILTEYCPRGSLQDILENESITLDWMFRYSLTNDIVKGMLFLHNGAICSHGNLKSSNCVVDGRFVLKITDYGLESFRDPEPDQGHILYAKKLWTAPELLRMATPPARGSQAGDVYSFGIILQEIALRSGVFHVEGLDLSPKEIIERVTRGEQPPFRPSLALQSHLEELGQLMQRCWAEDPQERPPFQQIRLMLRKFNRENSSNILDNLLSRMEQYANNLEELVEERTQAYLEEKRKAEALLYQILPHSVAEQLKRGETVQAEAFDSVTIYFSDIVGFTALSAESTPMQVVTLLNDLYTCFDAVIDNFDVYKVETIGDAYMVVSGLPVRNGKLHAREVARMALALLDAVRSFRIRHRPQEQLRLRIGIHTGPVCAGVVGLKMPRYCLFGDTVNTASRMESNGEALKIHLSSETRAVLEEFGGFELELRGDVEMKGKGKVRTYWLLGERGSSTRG
Method: The bifunctional hormone was tested on ANP receptor-expressing LLC-PK1 cells and on MCR1 receptor-expressing B16-F1 cells. Both cell types were cultured 24 hours before the stimulation, in 96-well plates, at a concentration of 1.0×10^5 cells/ml. Before stimulation, cells were starved 2 hours in DPBS only and incubated 10 min in assay buffer (DPBS containing 20 mM HEPES, 0.1% BSA and 500 μM IBMX). The dose response curve of the bifunctional hormone was done for 30 minutes with concentrations of 10^−6M through 10^−12M. Supernatant was collected and cAMP (B16-F1) or cGMP (LLC-PK1) was measured with a radiolabeled kit from GE Healthcare Company.

Sprague-Dawley (SD) rats [1] = assay: Effect on mean arterial pressure (MAP) of anesthetized rat, iv bolus and iv infusion; assay type: in vivo
Sprague-Dawley (SD) rats [2] = assay: Chronic infusion, acute kidney dysfunction following renal ischemia; assay type: in vivo, rat; details: FIG. 5
Method: After removing the renal artery clamps, peptide #2 or #33 was infused at two doses using intraperitoneally implanted Alzet™ minipumps (2ML1; delivery rate 10 μl/h). Plasma creatinine and BUN were determined at the indicated times. Data were analyzed by two way ANOVA using Bonferroni test for significance against the saline-treated group (n=3 per group; sal n=6); and
(§1) Surgical preparation. The rats were anesthetized with Isoflurane 2.5% for the duration of the experiment. Animals were placed under radiant warmer to keep the temperature at 37.5° C. A blood sample (0.5 ml) was collected via tail vein artery before the renal artery clamping. Once the animal was anesthetized, placed in a supine position, a 1.5 cm flank incision was made on the right side of the abdominal wall. The right kidney was then exposed and the ureter, renal artery and renal vein were carefully dissected and ligated. The kidney was removed after cutting renal pedicle. A same incision was made on the left side of the abdominal wall. The left kidney is exposed and the renal vascular pedicle is carefully dissected. The renal vascular pedicle was then occluded by placing a vascular clip (Micro Serrefine™, Fine Science Tools) for a period of 30 or 45 minutes. This renal vascular pedicle clamping produced an acute renal artery occlusion (RAO). The kidney was inspected for ischemia as well as for good reperfusion after removing vascular clip for 2 minutes. The wound of abdominal wall was closed in two layers. The muscular layer was closed with a running 3-0 silk suture and the skin was closed with suture clips (Fine Science Tools). 21 hours after right nephrectomy and left renal artery clipping procedure, the rats were put in the metabolic cages for urine collection (in pre-weighed Tube 50 ml) for 3 hours. Urine volume was measured by weighing the tube containing urine. Then, the animals were anesthetized with Isoflurane 2.5%. Left kidney was removed and kept in formalin for future histology. Blood was collected by cardiac puncture into a heparinized syringe (3 ml) and immediately transferred into appropriately labeled tubes that contain heparin as the anticoagulant. Following collection, all blood samples were kept on ice and centrifuged for 2 min at 13000 rpm. Plasma and urine aliquots (400 μl) were removed and stored at −80° C.
In order to test the effect of chronic infusion of the bifunctional hormone on kidney function on kidney injury, peptides #2 or #33 were infused at 1.5 or 15 μg/kg/h for 24 h after renal artery clamp removal. Plasma creatinine and urea nitrogen were determined at 24 h after the injury. The experimental procedures (animal model, dosing solutions) were the same as those described in Example 5 above.

Sprague-Dawley (SD) rats [3] = assay: Prophylactic treatment, acute kidney dysfunction following renal ischemia (renal artery clamping); assay type: in vivo, rat
Method: Plasma creatinine and urea were determined at different times. Data were analyzed by two way ANOVA using Bonferroni test for significance against the saline-treated group (n=3 per group; sal n=6).
Animals. Sprague-Dawley (SD) rats (male, weighing from 300 to 330 g) were obtained from Charles River Inc. Animals were maintained on standard laboratory chow under a 12:12 light:dark cycle.
as §1, with “Blood was collected by cardiac puncture into a heparinized syringe (3 ml) and immediately transferred into appropriately labeled tubes that contain heparin as the anticoagulant. Following collection, all blood samples were kept on ice and centrifuged for 2 min at 13000 rpm. Plasma and urine aliquots (400 μl) were removed and stored at −80° C.” left out

[4] = 1.5 or 15 μg/kg/h for 24 h after clamp removal (Alzet minipumps), vs saline-treated animals at 24 h
[5] = 15 μg/kg/h infused 1 h before and 1 h after renal artery clamping, vs saline group, each time point, FIG. 3

CC[C@H](C)[C@@H]1NC(=O)[C@H](CCCNC(=N)N)NC(=O)[C@H](CC(=O)O)NC(=O)[C@H](CCSC)NC(=O)[C@H](CCCNC(=N)N)NC(=O)CNC(=O)CNC(=O)[C@H](Cc2ccccc2)NC(=O)[C@@H](NC(=O)[C@H](CCSC)NC(=O)[C@@H]2CCCN2C(=O)[C@H](CCCCN)NC(=O)CNC(=O)[C@H](Cc2c[nH]c3ccccc23)NC(=O)[C@H](CCCNC(=N)N)NC(=O)[C@@H](Cc2ccccc2)NC(=O)[C@H](Cc2c[nH]cn2)NC(C)=O)CSSC[C@@H](C(=O)N[C@@H](CC(N)=O)C(=O)N[C@@H](CO)C(=O)N[C@@H](Cc2ccccc2)C(=O)N[C@@H](CCCNC(=N)N)C(=O)N[C@@H](Cc2ccc(O)cc2)C(N)=O)NC(=O)CNC(=O)[C@H](CC(C)C)NC(=O)CNC(=O)[C@H](CO)NC(=O)[C@H](CCC(N)=O)NC(=O)[C@H](C)NC(=O)CNC1=O [SEQ ID NO: 33, Ac-H-f-R-W-G-K-P-M-[C-F-G-G-R-M-D-R-I-G-A-Q-S-G-L-G-C]-N-S-F-R-Y-NH2] (Ac-H[dF]RWGKPMCFGGRMDRIGAQSGLGCNSFRY-NH2; disulfide 9-25)
EC50 (ANP receptor): 69 nM | effect on MAP of continuous intravenous infusion (Sprague-Dawley (SD) rats [1]; 30 μg/kg/h iv infusion, MAP recorded over an hour, FIG. 1B): well tolerated | bolus iv dose tolerated (MAP) (Sprague-Dawley (SD) rats [1]; anesthetized SD rat, incremental iv bolus doses, FIG. 1A): up to 20 μg/kg | dose dependence of reduction in the blood markers of renal ischemia (Sprague-Dawley (SD) rats [2]; 1.5 and 15 μg/kg/h for 24 h): dose-dependent reduction | BUN (Sprague-Dawley (SD) rats [2]; [4]): reduced plasma creatinine and BUN significantly | plasma creatinine (Sprague-Dawley (SD) rats [2]; [4]): reduced plasma creatinine and BUN significantly | reduction in BUN levels, compared with native ANP (Sprague-Dawley (SD) rats [2]; 24-hour infusion): more pronounced reduction | reduction in creatinine levels, compared with native ANP (Sprague-Dawley (SD) rats [2]; 24-hour infusion): more pronounced reduction | blood urea nitrogen (BUN) (Sprague-Dawley (SD) rats [3]; [5]): significantly reduced the elevation | plasma creatinine (Sprague-Dawley (SD) rats [3]; [5]): significantly reduced the elevation | diminishing kidney injury, compared with native ANP (Sprague-Dawley (SD) rats [3]; prophylactic use, 15 μg/kg/h): as effective as native ANP
